Values joined by “and” are separate entries in the source; they are usually repeats but may differ in a detail not shown here. Equal values may be shown once.
Legend:
[1] = test system: HXB2 site-directed mutant M41L, D67N, K70R, M184V, T215Y; type: cell-based; details: virus M41L
[2] = test system: HXB2 site-directed mutant M41L, T215Y; type: cell-based; details: virus M41L
[3] = test system: HXB2 site-directed mutant M41L, T69S-SS, T215Y; type: cell-based; details: virus M41L
[4] = test system: HXB2 site-directed mutant M41L, T69S-SG, T215Y; type: cell-based; details: virus M41L
[5] = test system: HXB2 site-directed mutant T69S-SS; type: cell-based; details: virus T69S-SS
[6] = test system: HXB2 site-directed mutant T69S-SG; type: cell-based; details: virus T69S-SG
[7] = test system: HXB2 site-directed mutant V75T; type: cell-based; details: virus V75T
[8] = test system: HXB2 site-directed mutant D67N, K70R; type: cell-based; details: virus D67N
[9] = test system: HXB2 site-directed mutant M41L, M184V, T215Y; type: cell-based; details: virus M41L
[10] = test system: HXB2 site-directed mutant T69S-AG; type: cell-based; details: virus T69S-AG
[11] = test system: HXB2 site-directed mutant M41L, T69S-AG, T215Y; type: cell-based; details: virus M41L
[12] = test system: HXB2 site-directed mutant Q151M; type: cell-based; details: virus Q151M
wild type HXB2 virus = experiment: HIV drug susceptibility assay (recombinant virus, MT-4 cells); details: for IC50: Human immunodeficiency virus 1, HXB2, MT4, read-out: mean IC50 for the wild type control virus

Compound | Fold resistance in IC50 relative to HXB2 [1] | Fold resistance in IC50 relative to HXB2 [2] | Fold resistance in IC50 relative to HXB2 [3] | Fold resistance in IC50 relative to HXB2 [4] | Fold resistance in IC50 relative to HXB2 [5] | Fold resistance in IC50 relative to HXB2 [6] | Fold resistance in IC50 relative to HXB2 [7] | Fold resistance in IC50 relative to HXB2 [8] | Fold resistance in IC50 relative to HXB2 [9] | Fold resistance in IC50 relative to HXB2 [10] | Fold resistance in IC50 relative to HXB2 [11] | Fold resistance in IC50 relative to HXB2 [12] | IC50 (wild type HXB2 virus) | Virus Assay fold resistance (wild type HXB2 virus; wild type HXB2 virus (reference))
Nc1ccn([C@@H]2CS[C@H](CO)O2)c(=O)n1 [3TC, lamivudine] | >62 fold | 1.0 fold | 4.3 fold | 11.3 fold | 5.0 fold | 2.9 fold | 3.2 fold | 1.2 fold | >62 fold | 4.2 fold | 6.1 fold | 2.0 fold | 0.6 µM | –
Cc1cn([C@H]2C[C@H](N=[N+]=[N-])[C@@H](CO)O2)c(=O)[nH]c1=O [AZT, zidovudine] | 6.4 fold and 6.4 (+/−1.5) fold | 26 fold and 26.2 fold and 26.2 (+/−10) fold | 12 fold and 12.0 fold and 12.0 (+/−2) fold | >96 fold | – | 8.1 fold and 8.1 (+/−4) fold | 1.4 fold | 11 fold and 11.2 fold | 5.2 fold and 5.2 (+/−1.5) fold | 7.0 fold and 7.0 (+/−4) fold | >96 fold | 2.1 fold | 0.012 µM | 1.0 fold
